# Experiments:
# [1] = target: T1, rabbit reticulocyte 15-LO (Oryctolagus cuniculus, UniProt P12530); assay: Rabbit Reticulocyte 15-LO Assay (h15LO); type: biochemical; details: Table 2; 2U rabbit reticulocyte 15-LO, 174 μM linoleic acid, 15 minutes at 4° C.
# T1 construct: Fifteen-lipoxygenase was obtained from phenylhydrazine-treated rabbits and purified per the method of Rapoport; from tissue; host or cells: reticulocytes of phenylhydrazine-treated rabbits
# T1 sequence (P12530 1-663): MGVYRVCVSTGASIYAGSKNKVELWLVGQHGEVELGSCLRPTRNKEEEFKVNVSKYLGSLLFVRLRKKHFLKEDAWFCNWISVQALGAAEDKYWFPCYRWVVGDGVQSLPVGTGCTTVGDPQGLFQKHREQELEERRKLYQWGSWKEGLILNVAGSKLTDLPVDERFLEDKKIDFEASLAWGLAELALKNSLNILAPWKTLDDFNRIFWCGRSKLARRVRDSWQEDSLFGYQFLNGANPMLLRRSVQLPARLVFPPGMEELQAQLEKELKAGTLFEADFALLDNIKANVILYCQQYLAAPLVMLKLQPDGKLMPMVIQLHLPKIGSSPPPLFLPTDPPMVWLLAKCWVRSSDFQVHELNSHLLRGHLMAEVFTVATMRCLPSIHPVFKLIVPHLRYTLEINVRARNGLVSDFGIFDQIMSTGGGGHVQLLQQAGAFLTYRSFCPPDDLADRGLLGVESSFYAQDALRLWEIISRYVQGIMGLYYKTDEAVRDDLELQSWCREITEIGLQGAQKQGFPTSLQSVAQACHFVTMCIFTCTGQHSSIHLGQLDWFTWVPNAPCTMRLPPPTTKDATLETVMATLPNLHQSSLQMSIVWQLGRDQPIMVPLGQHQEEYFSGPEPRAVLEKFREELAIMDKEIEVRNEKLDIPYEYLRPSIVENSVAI
# How it was run: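 Purified rabbit reticulocyte 15-LO (2U) incubated with inhibitor and 174 μM linoleic acid in PBS with 0.2% Na cholate for 15 minutes at 4° C. 13-HPODE quantified by peak area against 13-HODE standard curve; % inhibition relative to uninhibited reaction.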
# monocytes = assay: Monocyte Recruitment Assay (chemotaxis of monocytes); type: cell-based; details: Table 3; for EC50: Monocyte, read-out: Monocyte Recruitment Assay ED50
# Method: Monocyte Recruitment Assay
# The recruitment or chemotaxis of monocytes was assayed by methods well known to those skilled in the art. In particular, the method set forth in J. Clin. Invest., 1988;82:1853-1863, which is hereby incorporated by reference, was used.
# [2] = test system: Rabbits fed a 0.25% cholesterol, 3% peanut oil, 3% coconut oil diet; assay: In vivo tests: aortic atherosclerotic lesions in rabbits fed a cholesterol diet; details: 10 mg/kg as diet admix, 12 weeks
# Method: The entire descending thoracic aorta was assayed for its cholesteryl ester (CE), free cholesterol phospholipid content. The lipids were extracted in chloroform:methanol (2:1) by the procedure of Folch, et al. (Folch J., Lees M., Sloane-Stanley G. H. A simple method for the isolation and purification of total lipids from animal tissue, J. Biol. Chem., 1957;226:497-509) and 300-500 μL of an internal standard, i.e., 200 mg/ml solution of 4-hydroxy-cholesterol in ethyl acetate:acetone (2:1), was added to the extracts of the thoracic aortic samples. After extraction, the organic phase was dried under nitrogen and redissolved in isooctane/tetrahydro-furan (97:3). The lipid content and composition of the thoracic aorta were measured using an HPLC method.
# For histologic evaluation of the aortic arch lesions and for quantification of aortic arch cross-sectional lesion area, a 1 cm segment of the ascending aorta distal to the aortic valves was fixed in 10% neutral buffered formalin for 24 hours. The vessels were dehydrated, cleared in xylene, and infiltrated with molten paraffin (<60° C.) using a Tissue Tek VIP autoprocessor (Miles Scientific, Elkhart, Ind.). The tissue segments were embedded in paraffin and sectioned at 5 μm with a Reichert-Jung microtome (Baxter, McGraw Park, Ill.). In order to obtain a thorough representation of the histologic appearance of the aortic arch lesions, 3 ribbons of 20 sections each were cut. Each ribbon of sections was spaced approximately 100 μm apart. Three pairs of sections, i.e., 1 pair from each ribbon, were affixed to cleaned 3-aminopropyltriethoxy-silane coated glass slides and stored until stained. The general histologic character was evaluated in Verhoeff's elastica stained sections.
# The gross extent of atherosclerosis within the aortic arch was measured. In addition, sections of the aortic arch, a site of hypercholesterolemia-induced lesions, stained using the Verhoeff's elastica procedure were used for quantification of lesion cross-sectional. The internal elastic lamina (IEL) was identified as a blue-black ring and images of that region were collected using a digital camera. The area within the IEL was quantified using the Image Pro Plus image analysis software. The area of the lumen of the aortic arch was also quantified in a similar fashion. Lesion area was defined as the difference between the area circumscribed by the internal elastic lamina and the lumen area.
# Aortic arch lesion extent was also measured. The area distal to the 1 cm segment taken for histologic evaluation to the first intercostal ostia was removed from the animal, opened longitudinally and images of the surface of the vessel was collected using a digital camera. The lesions were identified as raised, opaque areas and their area was determined using the Image Pro Plus image analysis software. The area of the entire aortic arch was also determined. The percentage of aortic arch covered by atherosclerotic lesions was calculated.
SMILES,IC50 [1],melting point,EC50 (monocytes),Monocyte Recruitment Assay % @ 30 μM (monocytes),Aortic Arch Cross-Sectional Lesion Area (% Δ from Control) [2],Aortic Arch Lesion Extent (% Δ from Control) [2],Aortic Cholesteryl Ester Content (% Δ from Control) [2]
"COc1ccc(C(=O)Nc2ccccc2)cc1Nc1ccccc1 [Example 28, 4-Methoxy-3-phenylainino-N-phenyl-benzamide]",39 nM,194 to 195 °C,–,25% @ 30 μM,–,–,–
"O=C(Nc1ccccc1)c1ccc(O)c(Nc2cc(Cl)cc(Cl)c2)c1 [Example 56, 4-Hydroxy-3-(3,5-dichloro-phenylamino)-N-phenyl-benzamide]",18 nM,160 to 162 °C,2600 nM,–,–,–,–
"COc1ccc(C(=O)Nc2ccccc2)cc1NC(=S)Nc1cc(Cl)cc(Cl)c1 [Example 60, 3-[3-(3,5-Dichlorophenyl)-thioureido]-4-methoxy-N-phenyl-benzamide]",8.6 nM,195 to 197 °C,17600 nM,–,+84 % Δ from Control,+40 % Δ from Control,+59 % Δ from Control
"COc1ccc(C(=O)Nc2ccccc2)cc1NC(=S)Nc1ccc(Cl)cc1 [Example 65, 3-[3-(4-Chlorophenyl)-thioureido]-4-methoxy-N-phenyl-benzamide]",42 nM,179 to 180 °C,22700 nM,–,–,–,–
"COc1ccc(C(=O)Nc2ccccc2)cc1NC(=S)Nc1cccc([N+](=O)[O-])c1 [Example 66, 3-[3-(3-Nitrophenyl)-thioureido]-4-methoxy-N-phenyl-benzamide]",7 nM,188 to 189 °C,–,38% @ 30 μM,–,–,–

# Second part, led by results:
IC50 [1],melting point,EC50 (monocytes),SMILES,Monocyte Recruitment Assay % @ 30 μM (monocytes),Aortic Arch Cross-Sectional Lesion Area (% Δ from Control) [2],Aortic Arch Lesion Extent (% Δ from Control) [2],Aortic Cholesteryl Ester Content (% Δ from Control) [2]
42 nM,170 to 174 °C,2300 nM,"COc1ccc(C(=O)Nc2ccccc2)cc1NC(=S)Nc1c(F)c(F)cc(F)c1F [Example 68, 4-Methoxy-N-phenyl-3-[3-(2,3,5,6-tetrafluoro-phenyl)-thioureido]-benzamide]",–,–,–,–
32 nM,–,–,"COc1ccc(C(=O)Nc2ccccc2)cc1NC(=S)Nc1ccc(C)cc1 [Example 69, 4-Methoxy-N-phenyl-3-(-3-p-tolyl-thioureido)-benzamide]",13% @ 30 μM,–,–,–

# Source: patent publication US6528528B2 (Warner-Lambert Company, priority 1997, dated 2003)
